Test results published in patent publication US20230278972A1, “SUBSTITUTED HALOALKYL SULFONANILIDE HERBICIDES” (FMC Corporation, priority 2020, published 2023).

Key:
Format in all cases: in vivo
[1] = test system: Foxtail, Giant (giant foxtail, Setaria faberi); test: Test A preemergence, Foxtail, Giant; details: Preemergence; for Foxtail, Giant plant response rating: 125 g ai/ha, visual injury on 0 to 100 scale (0 no effect, 100 complete control), approximately 10 days; for Plant response rating, Foxtail, Giant: 500 g ai/ha, 0 to 100 scale (0 no effect, 100 complete control)
Procedure, shortened: (§1)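 Test chemicals, formulated in a non-phytotoxic solvent mixture with surfactant, were sprayed postemergence on plants 2 to 10 cm tall at the one- to two-leaf stage. Preemergence treatment was a directed soil spray onto freshly seeded pots. Both used a loam soil and sand blend.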

[2] = test system: galium (catchweed bedstraw, Galium aparine); test: Test A postemergence, galium; details: Postemergence, 0 to 100 scale (0 no effect, 100 complete control); for Plant response rating, Galium: 125 g ai/ha; for Galium plant response rating: 500 g ai/ha, visual injury vs untreated controls after approx. 10 days
Procedure, shortened: (§2)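 Preemergence: seeded pots of loam plus sand received a directed soil spray. Postemergence: seedlings at one to two leaves, 2 to 10 cm high, were oversprayed. Each compound was formulated in a non-phytotoxic solvent mix that included a surfactant.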

[3] = test system: pigweed (Amaranthus retroflexus); test: Test A postemergence, pigweed; details: Postemergence, 0 to 100 scale (0 no effect, 100 complete control); for Plant response rating, Pigweed: 125 g ai/ha; for Pigweed plant response rating: 500 g ai/ha, visual injury vs untreated controls after approx. 10 days
Procedure, shortened: as §1

[4] = test system: blackgrass (Alopecurus myosuroides); test: Test A postemergence, blackgrass; details: Postemergence, 0 to 100 scale (0 no effect, 100 complete control); for Plant response rating, Blackgrass: 125 g ai/ha; for Blackgrass plant response rating: 500 g ai/ha, visual injury vs untreated controls after approx. 10 days
Procedure, shortened: as §1

[5] = test system: kochia (Bassia scoparia); test: Test A preemergence, kochia; details: Preemergence; for Kochia plant response rating: 125 g ai/ha, visual injury on 0 to 100 scale (0 no effect, 100 complete control), approximately 10 days; for Plant response rating, Kochia: 500 g ai/ha, 0 to 100 scale (0 no effect, 100 complete control)
Procedure, shortened: as §1

[6] = test system: wheat (Triticum aestivum); test: Test A postemergence, wheat; details: Postemergence, 0 to 100 scale (0 no effect, 100 complete control); for Plant response rating, Wheat: 125 g ai/ha; for Wheat plant response rating: 500 g ai/ha, visual injury vs untreated controls after approx. 10 days
Procedure, shortened: as §2

[7] = test system: ragweed (common ragweed, Ambrosia artemisiifolia); test: Test A postemergence, ragweed; details: Postemergence, 0 to 100 scale (0 no effect, 100 complete control); for Plant response rating, Ragweed: 125 g ai/ha; for Ragweed plant response rating: 500 g ai/ha, visual injury vs untreated controls after approx. 10 days
Procedure, shortened: as §1

[8] = test system: pigweed (Amaranthus retroflexus); test: Test A preemergence, pigweed; details: for Pigweed plant response rating: 125 g ai/ha, visual injury on 0 to 100 scale (0 no effect, 100 complete control), approximately 10 days; for Plant response rating, Pigweed: 500 g ai/ha, 0 to 100 scale (0 no effect, 100 complete control)
Procedure, shortened: as §2

[9] = test system: Foxtail, Giant (giant foxtail, Setaria faberi); test: Test A postemergence, Foxtail, Giant; details: Postemergence, 0 to 100 scale (0 no effect, 100 complete control); for Plant response rating, Foxtail, Giant: 125 g ai/ha; for Foxtail, Giant plant response rating: 500 g ai/ha, visual injury vs untreated controls after approx. 10 days
Procedure, shortened: as §1

[10] = test system: corn (Zea mays); test: Test A postemergence, corn; details: Postemergence, 0 to 100 scale (0 no effect, 100 complete control); for Plant response rating, Corn: 125 g ai/ha; for Corn plant response rating: 500 g ai/ha, visual injury vs untreated controls after approx. 10 days
Procedure, shortened: as §1

[11] = test system: kochia (Bassia scoparia); test: Test A postemergence, kochia; details: Postemergence, 0 to 100 scale (0 no effect, 100 complete control); for Plant response rating, Kochia: 125 g ai/ha; for Kochia plant response rating: 500 g ai/ha, visual injury vs untreated controls after approx. 10 days
Procedure, shortened: as §1

[12] = test system: barnyardgrass (Echinochloa crus-galli); test: Test A preemergence, barnyardgrass; details: Preemergence; for Barnyardgrass plant response rating: 125 g ai/ha, visual injury on 0 to 100 scale (0 no effect, 100 complete control), approximately 10 days; for Plant response rating, Barnyardgrass: 500 g ai/ha, 0 to 100 scale (0 no effect, 100 complete control)
Procedure, shortened: as §1

[13] = test system: Ryegrass, Italian (Italian ryegrass, Lolium multiflorum); test: Test A postemergence, Ryegrass, Italian; details: Postemergence, 0 to 100 scale (0 no effect, 100 complete control); for Plant response rating, Ryegrass, Italian: 125 g ai/ha; for Ryegrass, Italian plant response rating: 500 g ai/ha, visual injury vs untreated controls after approx. 10 days
Procedure, shortened: as §1

[14] = test system: ragweed (common ragweed, Ambrosia artemisiifolia); test: Test A preemergence, ragweed; details: Preemergence; for Ragweed plant response rating: 125 g ai/ha, visual injury on 0 to 100 scale (0 no effect, 100 complete control), approximately 10 days; for Plant response rating, Ragweed: 500 g ai/ha, 0 to 100 scale (0 no effect, 100 complete control)
Procedure, shortened: as §1

[15] = test system: barnyardgrass (Echinochloa crus-galli); test: Test A postemergence, barnyardgrass; details: Postemergence, 0 to 100 scale (0 no effect, 100 complete control); for Plant response rating, Barnyardgrass: 125 g ai/ha; for Barnyardgrass plant response rating: 500 g ai/ha, visual injury vs untreated controls after approx. 10 days
Procedure, shortened: as §2

[16] = test system: Ryegrass, Italian (Italian ryegrass, Lolium multiflorum); test: Test A preemergence, Ryegrass, Italian; details: Preemergence; for Ryegrass, Italian plant response rating: 125 g ai/ha, visual injury on 0 to 100 scale (0 no effect, 100 complete control), approximately 10 days; for Plant response rating, Ryegrass, Italian: 500 g ai/ha, 0 to 100 scale (0 no effect, 100 complete control)
Procedure, shortened: as §1

Compound	Foxtail, Giant plant response rating [1]	Plant response rating, Foxtail, Giant [1]	Plant response rating, Galium [2]	Galium plant response rating [2]	Plant response rating, Pigweed [3]	Pigweed plant response rating [3]	Plant response rating, Blackgrass [4]	Blackgrass plant response rating [4]	Kochia plant response rating [5]	Plant response rating, Kochia [5]	Plant response rating, Wheat [6]	Wheat plant response rating [6]	Plant response rating, Ragweed [7]	Ragweed plant response rating [7]	Pigweed plant response rating [8]	Plant response rating, Pigweed [8]	Plant response rating, Foxtail, Giant [9]	Foxtail, Giant plant response rating [9]	Plant response rating, Corn [10]	Corn plant response rating [10]	also measured
Cc1cc(C(F)(F)F)c(C(=O)N2CCCCC2)cc1NS(=O)(=O)C(F)(F)F [Compound 180]	0	90	70	90	50	70	0	20	0	0	0	0	20	70	20	70	10	10	0	0	Plant response rating, Kochia [11]: 10; Kochia plant response rating [11]: 40; Barnyardgrass plant response rating [12]: 0; Plant response rating, Barnyardgrass [12]: 80; Plant response rating, Ryegrass, Italian [13]: 0; Ryegrass, Italian plant response rating [13]: 0; Ragweed plant response rating [14]: 20; Plant response rating, Ragweed [14]: 70; Plant response rating, Barnyardgrass [15]: 0; Barnyardgrass plant response rating [15]: 10; Ryegrass, Italian plant response rating [16]: 0; Plant response rating, Ryegrass, Italian [16]: 50
C#CCN(CC#C)C(=O)c1cc(N(S(=O)(=O)C(F)(F)F)S(=O)(=O)C(F)(F)F)c(C)cc1C [Compound 181]	100	100	60	70	40	80	10	30	60	100	50	80	80	90	40	80	60	90	10	80	Plant response rating, Kochia [11]: 30; Kochia plant response rating [11]: 80; Barnyardgrass plant response rating [12]: 90; Plant response rating, Barnyardgrass [12]: 100; Plant response rating, Ryegrass, Italian [13]: 70; Ryegrass, Italian plant response rating [13]: 90; Ragweed plant response rating [14]: 50; Plant response rating, Ragweed [14]: 90; Plant response rating, Barnyardgrass [15]: 80; Barnyardgrass plant response rating [15]: 90; Ryegrass, Italian plant response rating [16]: 80; Plant response rating, Ryegrass, Italian [16]: 90
